Calls of active or inactive are those of the source.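 The calls were made as follows: active = mean EC50 at or below 20 µM; inactive = the rest.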
Biological target: CHO-CHOP luciferase reporter, luminescence, UPR apoptotic arm
Experiment: activators of PERK-eIF2a-CHOP apoptotic arm – cell-based, luciferase luminescence, set 2, counter-screen for UPR adaptive arm activator project, SAR follow-up (AID 588597)

SMILES	EC50
COc1cccc(NC(=O)c2cc(-c3ccncc3)nc3ccccc23)c1	> 80 µM (inactive)
O=C(Nc1cccc(Br)c1)c1cc(-c2ccncc2)nc2ccccc12	> 80 µM (inactive)
Cc1cc(NC(=O)c2cc(-c3ccncc3)nc3ccccc23)ccc1F	> 80 µM (inactive)
O=C(Nc1cccc(Cl)c1)c1cc(-c2ccncc2)nc2ccccc12	> 80 µM (inactive)
O=C(Nc1cccc(F)c1F)c1cc(-c2ccncc2)nc2ccccc12	> 80 µM (inactive)
O=C(Nc1cc(F)ccc1F)c1cc(-c2ccncc2)nc2ccccc12	inactive
Cc1cc(NC(=O)c2cc(-c3ccccc3)nc3ccccc23)ccc1Br	> 80 µM (inactive)
Cc1cccc(NC(=O)c2cc(-c3ccncc3)nc3ccccc23)c1	> 80 µM (inactive)
O=C(Nc1cccc(F)c1Br)c1cc(-c2ccncc2)nc2ccccc12	> 80 µM (inactive)
Cc1cc(NC(=O)c2cc(-c3ccncc3)nc3ccccc23)ccc1Cl	> 80 µM (inactive)
O=C(Nc1ccc(Br)c(C(F)(F)F)c1)c1cc(-c2ccncc2)nc2ccccc12	inactive
O=C(Nc1cccc(C(F)(F)F)c1)c1cc(-c2ccncc2)nc2ccccc12	> 80 µM (inactive)
O=C(Nc1ccccc1Br)c1cc(-c2ccncc2)nc2ccccc12	> 80 µM (inactive)
Cc1cc(Br)cc(NC(=O)c2cc(-c3ccncc3)nc3ccccc23)c1	inactive

Second part, the molecule after the results:

EC50	SMILES
> 80 µM (inactive)	O=C(Nc1cccc(F)c1)c1cc(-c2ccncc2)nc2ccccc12
1.99 µM	O=C(Nc1ccc(C(F)(F)F)cc1)c1cc(-c2ccncc2)nc2ccccc12
8.56 µM	Cc1ccc(NC(=O)c2cc(-c3ccncc3)nc3ccccc23)cc1
inactive	O=C(Nc1ccc(F)cc1)c1cc(-c2ccncc2)nc2ccccc12
> 80 µM (inactive)	O=C(Nc1ccc(F)c(F)c1)c1cc(-c2ccncc2)nc2ccccc12
7.43 µM	O=C(Nc1ccc(Cl)cc1)c1cc(-c2ccncc2)nc2ccccc12

Source: PubChem BioAssay AID588597 (Sanford-Burnham Center for Chemical Genomics, 2011)
